Reference: the NIST ThermoML archive (doi:10.1016/j.jct.2015.09.024)
± gives the expanded uncertainty stated by the source.

Settings: Liquid, ATR infrared spectroscopy

## O=C=O [carbon dioxide]
295.45 K
  vapor or sublimation pressure: 6020 ± 490 kPa
297.05 K
  vapor or sublimation pressure: 6240 ± 500 kPa
299.05 K
  vapor or sublimation pressure: 6520 ± 530 kPa
302.65 K
  vapor or sublimation pressure: 7090 ± 570 kPa
303.25 K
  vapor or sublimation pressure: 7180 ± 580 kPa
